Measurements as given in article PMC8348686, “The Pharmacological Profile of Second Generation Pyrovalerone Cathinones and Related Cathinone Derivative” (International Journal of Molecular Sciences, 2021).
“Also recorded” adds a separate entry of the source. Where two headings read alike, the source gives them in different places.

Key:
hNET [1] = molecular target: T1, hNET (Homo sapiens, UniProt P23975); settings: read-out: hNET Receptor Binding Ki ± SD, N-Methyl-[3H]-nisoxetine, cited from earlier work
dopaminergic D2 receptor = dopaminergic D2 receptor (Homo sapiens, UniProt P14416); settings: read-out: D2 Receptor Binding Ki ± SD, [3H]-Spiperone, cited from earlier work
adrenergic α1A receptor = molecular target: T2, adrenergic α1A receptor (Homo sapiens, UniProt P35348); settings: read-out: α1A Receptor Binding Ki ± SD, [3H]-Prazosin, cited from earlier work
T2 sequence (P35348 1-466): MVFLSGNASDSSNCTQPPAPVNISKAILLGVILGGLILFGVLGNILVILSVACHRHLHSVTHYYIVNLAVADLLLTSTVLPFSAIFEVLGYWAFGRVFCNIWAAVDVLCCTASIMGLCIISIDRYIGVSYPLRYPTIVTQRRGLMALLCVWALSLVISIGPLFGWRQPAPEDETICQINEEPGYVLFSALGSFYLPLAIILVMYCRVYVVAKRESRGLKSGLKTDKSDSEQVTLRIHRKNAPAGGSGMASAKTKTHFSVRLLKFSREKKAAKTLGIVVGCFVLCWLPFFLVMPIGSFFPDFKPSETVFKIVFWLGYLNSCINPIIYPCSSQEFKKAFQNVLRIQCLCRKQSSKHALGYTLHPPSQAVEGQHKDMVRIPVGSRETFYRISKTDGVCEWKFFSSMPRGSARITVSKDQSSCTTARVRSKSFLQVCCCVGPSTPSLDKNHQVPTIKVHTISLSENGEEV

adrenergic α2A receptor = molecular target: T3, adrenergic α2A receptor (Homo sapiens, UniProt P08913); settings: [3H]-Rauwolscine, cited from earlier work; for Ki: read-out: α2A Receptor Binding Ki ± SD
T3 sequence (P08913 1-465): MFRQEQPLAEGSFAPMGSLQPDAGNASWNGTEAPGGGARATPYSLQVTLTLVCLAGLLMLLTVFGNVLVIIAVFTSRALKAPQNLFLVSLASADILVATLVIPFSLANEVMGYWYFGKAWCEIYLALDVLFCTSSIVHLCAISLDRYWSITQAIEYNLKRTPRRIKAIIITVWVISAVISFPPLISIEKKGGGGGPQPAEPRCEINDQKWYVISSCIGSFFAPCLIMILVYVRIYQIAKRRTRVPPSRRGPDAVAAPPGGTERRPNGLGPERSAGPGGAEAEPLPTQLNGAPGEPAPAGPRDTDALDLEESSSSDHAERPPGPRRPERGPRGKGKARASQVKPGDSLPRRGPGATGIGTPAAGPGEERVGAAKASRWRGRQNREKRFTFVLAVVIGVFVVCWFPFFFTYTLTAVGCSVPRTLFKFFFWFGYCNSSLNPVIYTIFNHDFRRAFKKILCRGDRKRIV

Human TAAR1 = test system: Human TAAR1; set-up: method as in Simmler et al. (2016); settings: ref Simmler et al. (2016); read-out: Human TAAR1 Activation Potency EC50 ± SD; cited from earlier work
hNET [2] = molecular target: T1, hNET; assay: Transporter-mediated monoamine efflux, [3H]-NE preloaded HEK293 cells; format: cell-based; set-up: expressed in transfected cells; host or cells: HEK293; settings: 100 μM of drug, 45 min, HEK293 hNET preloaded with [3H]-NE; data for some pyrovalerones adapted from [13]
Experimental: (§1) Monoamine efflux was assessed using human embryonic kidney 293 (HEK293) cells (Invitrogen, Zug, Switzerland) stably transfected with the human norepinephrine (hNET), dopamine (hDAT), or serotonin (hSERT) uptake transporters. In summary, the cells were seeded in poly-D-lysine coated XF24 cell culture microplates (Seahorse Biosciences, North Billerica, MA, USA) and cultured overnight at a concentration of 100,000 cells per well.
(§2) The cells were then exposed to Krebs–HEPES release buffer (85 μL/well) comprised of 130 mM NaCl, 1.3 mM KCl, 2.2 mM CaCl2, 1.2 mM MgSO4, 1.2 mM KH2PO4, 10 mM HEPES, and 10 mM D-glucose at a pH of 7.5, which also contained 10 nM radiolabelled neurotransmitter ([^3H]-5-HT for SERT, [^3H]-DA for DAT or [^3H]-NE for NET), 1 μM unlabelled neurotransmitter (DA or NE, only), 10 μM pargyline, and 0.2 mg/mL of ascorbic acid. This enabled the loading of the cells with their respective neurotransmitters via the uptake transporters. Afterwards, the release buffer was replaced by fresh buffer to wash the cells twice and the cells were then incubated for 15 min (DAT and SERT) or 45 min (NET) to 100 μM of test drugs dissolved in 1 mL of Krebs–HEPES buffer while shaking at 300 rpm and 37 °C. Termination of the release reaction occurred by removing the buffer from the cells and washing them with ice-cold buffer. Next, 50 μL of lysis buffer was added to the cells for 1 h in order to lyse the cells. Thereafter, 40 μL of the lysed cell mixture was transferred into scintillation vials (Perkin–Elmer, Schwerzenbach, Switzerland) containing 3 mL of scintillation fluid (Ultimagold, Perkin–Elmer, Schwerzenbach, Switzerland) and measured using liquid scintillation (as previously described in Section 2.2).
(§3) To quantify the “pseudo efflux” caused by the non-transporter mediated monoamine release and successive reuptake inhibition, each monoamine efflux experiment included a control where the cells were exposed to each respective transporter blocker (nisoxetine for NET, mazindol for DAT, and citalopram for SERT). The radioactivity inside the cells without any drug was set as 100%. The nonspecific release was subtracted from the total observed release at 100 μM of each examined drug to calculate the specific transporter mediated release. One single concentration of the test drugs was used (100 μM) and release exposure durations were set based on previously evaluated kinetics of the release-over-time curves.
(§4) An ANOVA followed by a Holm–Sidak test was conducted to compare each drug’s specific transporter-mediated efflux based on at least three independent experiments to the control condition.

hDAT = hDAT (Homo sapiens, UniProt Q01959); assay: Transporter-mediated monoamine efflux, [3H]-DA preloaded HEK293 cells; format: cell-based; set-up: expressed in transfected cells; host or cells: HEK293; settings: 100 μM of drug, 15 min, HEK293 hDAT preloaded with [3H]-DA; data for some pyrovalerones adapted from [13]
Experimental: as §1, §2, §3, §4

hSERT = hSERT (Homo sapiens, UniProt P31645); assay: Transporter-mediated monoamine efflux, [3H]-5-HT preloaded HEK293 cells; format: cell-based; set-up: expressed in transfected cells; host or cells: HEK293; settings: 100 μM of drug, 15 min, HEK293 hSERT preloaded with [3H]-5-HT; data for some pyrovalerones adapted from [13]
Experimental: as §1, §2, §3, §4

[3] = ref Luethi, Kolaczynska et al. (2019)

T1 sequence (P23975 whole entry): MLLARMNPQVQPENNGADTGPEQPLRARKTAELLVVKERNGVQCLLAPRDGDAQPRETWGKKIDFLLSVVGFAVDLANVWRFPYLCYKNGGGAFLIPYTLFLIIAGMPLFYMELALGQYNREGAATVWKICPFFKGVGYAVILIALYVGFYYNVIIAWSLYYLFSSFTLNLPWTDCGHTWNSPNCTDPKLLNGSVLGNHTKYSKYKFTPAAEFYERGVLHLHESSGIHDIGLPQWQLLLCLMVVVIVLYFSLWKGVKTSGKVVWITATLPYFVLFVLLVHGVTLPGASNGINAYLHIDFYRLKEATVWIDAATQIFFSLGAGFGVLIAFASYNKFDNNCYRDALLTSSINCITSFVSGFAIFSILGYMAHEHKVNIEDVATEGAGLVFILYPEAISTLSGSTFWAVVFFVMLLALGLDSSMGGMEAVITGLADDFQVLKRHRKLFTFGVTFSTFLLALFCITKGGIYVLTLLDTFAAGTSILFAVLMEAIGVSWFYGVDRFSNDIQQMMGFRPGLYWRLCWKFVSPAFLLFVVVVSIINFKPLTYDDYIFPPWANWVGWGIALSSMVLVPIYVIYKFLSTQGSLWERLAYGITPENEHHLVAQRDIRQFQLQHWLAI
Sequence of dopaminergic D2 receptor (P14416 whole entry): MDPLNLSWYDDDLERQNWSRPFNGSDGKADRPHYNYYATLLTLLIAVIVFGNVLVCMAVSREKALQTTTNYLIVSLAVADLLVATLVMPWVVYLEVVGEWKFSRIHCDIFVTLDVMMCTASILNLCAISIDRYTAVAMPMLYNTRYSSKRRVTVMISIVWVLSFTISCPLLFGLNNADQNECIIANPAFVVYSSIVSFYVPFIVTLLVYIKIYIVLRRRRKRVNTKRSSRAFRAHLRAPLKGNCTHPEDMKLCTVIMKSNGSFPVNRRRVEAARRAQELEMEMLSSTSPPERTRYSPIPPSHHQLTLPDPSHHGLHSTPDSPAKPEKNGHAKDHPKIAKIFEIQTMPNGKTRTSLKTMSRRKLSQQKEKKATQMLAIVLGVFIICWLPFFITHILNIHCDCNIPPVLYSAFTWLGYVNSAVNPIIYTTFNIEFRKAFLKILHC
Sequence of hDAT (Q01959 whole entry): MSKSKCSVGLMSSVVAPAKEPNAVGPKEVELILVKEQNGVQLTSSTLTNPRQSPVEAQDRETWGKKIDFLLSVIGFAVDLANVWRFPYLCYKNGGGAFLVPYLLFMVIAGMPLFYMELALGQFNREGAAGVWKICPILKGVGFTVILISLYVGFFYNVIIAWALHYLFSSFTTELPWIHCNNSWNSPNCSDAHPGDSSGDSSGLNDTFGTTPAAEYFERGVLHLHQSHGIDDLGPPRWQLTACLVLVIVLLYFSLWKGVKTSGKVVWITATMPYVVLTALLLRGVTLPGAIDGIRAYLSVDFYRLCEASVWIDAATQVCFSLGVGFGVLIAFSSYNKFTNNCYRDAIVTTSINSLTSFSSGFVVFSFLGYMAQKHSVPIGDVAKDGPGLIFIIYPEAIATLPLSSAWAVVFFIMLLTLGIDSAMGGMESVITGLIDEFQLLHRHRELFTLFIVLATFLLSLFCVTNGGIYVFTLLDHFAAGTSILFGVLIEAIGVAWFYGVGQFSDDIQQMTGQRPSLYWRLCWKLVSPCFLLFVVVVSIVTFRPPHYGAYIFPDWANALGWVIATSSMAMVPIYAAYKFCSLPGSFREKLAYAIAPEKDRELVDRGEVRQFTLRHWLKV
Sequence of hSERT (P31645 whole entry): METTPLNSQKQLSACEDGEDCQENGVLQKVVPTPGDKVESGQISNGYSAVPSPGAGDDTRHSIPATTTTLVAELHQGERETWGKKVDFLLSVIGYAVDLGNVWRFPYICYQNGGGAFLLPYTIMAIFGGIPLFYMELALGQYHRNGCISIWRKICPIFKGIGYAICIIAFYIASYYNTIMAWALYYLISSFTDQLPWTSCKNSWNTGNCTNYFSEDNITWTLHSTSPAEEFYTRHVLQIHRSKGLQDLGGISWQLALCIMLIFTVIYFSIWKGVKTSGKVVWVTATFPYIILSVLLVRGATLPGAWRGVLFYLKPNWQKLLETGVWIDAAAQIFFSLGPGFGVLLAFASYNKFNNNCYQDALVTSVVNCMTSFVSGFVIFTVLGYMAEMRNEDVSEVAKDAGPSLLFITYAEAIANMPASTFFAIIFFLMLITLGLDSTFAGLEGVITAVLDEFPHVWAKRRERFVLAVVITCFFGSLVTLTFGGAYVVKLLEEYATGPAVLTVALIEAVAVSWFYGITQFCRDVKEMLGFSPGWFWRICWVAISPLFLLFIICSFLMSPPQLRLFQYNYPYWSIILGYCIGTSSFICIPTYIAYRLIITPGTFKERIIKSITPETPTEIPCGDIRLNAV

Compound: CCCC(C(=O)c1ccc2c(c1)OCO2)N1CCCC1 (stereo not shown) [MDPV, 3,4-methylenedioxypyrovalerone]
- Ki (hNET [1]; ref Simmler et al. (2013)): 0.08 ± 0.02 µM
- Ki (dopaminergic D2 receptor; ref Simmler et al. (2013)): > 30 µM
- Ki (adrenergic α1A receptor; ref Simmler et al. (2013)): > 6 µM
- Ki (adrenergic α2A receptor; ref Simmler et al. (2013)): > 20 µM
- EC50 (Human TAAR1): > 30 µM

Compound: CCCCC(C(=O)c1ccccc1)N1CCCC1 (stereo not drawn) [α-PHP, α-pyrrolidinohexanophenone]
- Transporter-mediated monoamine efflux (NE) vs nisoxetine (hNET [2]): did not induce any monoamine efflux
- Transporter-mediated monoamine efflux (DA) vs mazindol (hDAT): did not induce any monoamine efflux
- Transporter-mediated monoamine efflux (5-HT) vs citalopram (hSERT): did not induce any monoamine efflux

Compound: CCCC(C(=O)c1ccc(C)cc1)N1CCCC1 (stereo not shown) [Pyrovalerone, pyrovalerone]
- Ki (hNET [1]; ref Simmler et al. (2013)): 0.06 ± 0.01 µM
- Ki (dopaminergic D2 receptor; ref Simmler et al. (2013)): > 30 µM
- Ki (adrenergic α1A receptor; ref Simmler et al. (2013)): > 6 µM
- Ki (adrenergic α2A receptor; ref Simmler et al. (2013)): > 20 µM

Compound: CNC(C)Cc1ccc2c(c1)OCO2 (stereo not shown) [MDMA, 3,4-methylenedioxymethamphetamine, reference compound]
- Ki (hNET [1]; [3]): > 8.7 µM
- Ki (dopaminergic D2 receptor; [3]): > 13 µM
- Ki (adrenergic α1A receptor; [3]): 6.9 ± 1.2 µM
- Ki (adrenergic α2A receptor; [3]): 4.6 ± 1.1 µM
- EC50 (Human TAAR1): 35 ± 21 µM
- Transporter-mediated monoamine efflux (NE) vs nisoxetine (hNET [2]): causes significant release at the transporters
- Transporter-mediated monoamine efflux (DA) vs mazindol (hDAT): causes significant release at the transporters
- Transporter-mediated monoamine efflux (5-HT) vs citalopram (hSERT): causes significant release at the transporters

Compound: CCC(C(=O)c1ccc(F)cc1)N1CCCC1 (stereo not drawn) [4F-PBP, 4-fluoro-α-pyrrolidinobutiophenone]
- Transporter-mediated monoamine efflux (NE) vs nisoxetine (hNET [2]): did not induce any monoamine efflux
- Transporter-mediated monoamine efflux (DA) vs mazindol (hDAT): did not induce any monoamine efflux
- Transporter-mediated monoamine efflux (5-HT) vs citalopram (hSERT): did not induce any monoamine efflux

Compound: CCCCC(C(=O)c1ccc(C)cc1)N1CCCC1 (stereo not drawn) [MPHP, 4-methyl-α-pyrrolidinohexanophenone]
- Transporter-mediated monoamine efflux (NE) vs nisoxetine (hNET [2]): no monoamine efflux was observed
- Transporter-mediated monoamine efflux (DA) vs mazindol (hDAT): no monoamine efflux was observed
- Transporter-mediated monoamine efflux (5-HT) vs citalopram (hSERT): no monoamine efflux was observed

Compound: CC(C(=O)c1ccc2c(c1)OCO2)N1CCCC1 (stereo not drawn) [MDPPP, 3,4-methylenedioxy-α-pyrrolidinopropiophenone]
- Ki (hNET [1]; ref Rickli et al. (2015)): 3.5 ± 1 µM
- Ki (dopaminergic D2 receptor; ref Rickli et al. (2015)): > 10 µM
- Ki (adrenergic α1A receptor; ref Rickli et al. (2015)): > 15 µM
- α2A Receptor Binding Ki ± SD (adrenergic α2A receptor; ref Rickli et al. (2015)): bound the receptor in the low micromolar range
- Ki (adrenergic α2A receptor; ref Rickli et al. (2015)): 14 ± 0.9 µM

Compound: CC(C(=O)c1ccccc1)N1CCCC1 (stereo not drawn) [α-PPP, α-pyrrolidinopropiophenone]
- Transporter-mediated monoamine efflux (NE) vs nisoxetine (hNET [2]): did not induce any monoamine efflux
- Transporter-mediated monoamine efflux (DA) vs mazindol (hDAT): did not induce any monoamine efflux
- Transporter-mediated monoamine efflux (5-HT) vs citalopram (hSERT): did not induce any monoamine efflux

Compound: Cc1ccc(C(=O)C(C)N2CCCC2)cc1 (stereo not drawn) [4-MePPP, 4-methyl-α-pyrrolidinopropiophenone]
- Transporter-mediated monoamine efflux (NE) vs nisoxetine (hNET [2]): no monoamine efflux was observed
- Transporter-mediated monoamine efflux (DA) vs mazindol (hDAT): no monoamine efflux was observed
- Transporter-mediated monoamine efflux (5-HT) vs citalopram (hSERT): no monoamine efflux was observed

Compound: CCCC(C(=O)c1ccccc1)N1CCCC1 (stereo not drawn) [α-PVP, α-pyrrolidinopentiophenone]
- Ki (hNET [1]; ref Rickli et al. (2015)): 0.06 ± 0.02 µM
- Ki (dopaminergic D2 receptor; ref Rickli et al. (2015)): > 10 µM
- Ki (adrenergic α1A receptor; ref Rickli et al. (2015)): > 15 µM
- Ki (adrenergic α2A receptor; ref Rickli et al. (2015)): > 20 µM
- Transporter-mediated monoamine efflux (NE) vs nisoxetine (hNET [2]): did not induce any monoamine efflux
- Transporter-mediated monoamine efflux (DA) vs mazindol (hDAT): did not induce any monoamine efflux
- Transporter-mediated monoamine efflux (5-HT) vs citalopram (hSERT): did not induce any monoamine efflux

Compound: CCCCC(NCC)C(=O)c1ccccc1 (stereo not shown) [NEH, N-ethylamine-hexanophenone]
- Transporter-mediated monoamine efflux (NE) vs nisoxetine (hNET [2]): did not produce any monoamine efflux; also recorded: did not induce any monoamine efflux
- Transporter-mediated monoamine efflux (DA) vs mazindol (hDAT): did not produce any monoamine efflux; also recorded: did not induce any monoamine efflux
- Transporter-mediated monoamine efflux (5-HT) vs citalopram (hSERT): did not produce any monoamine efflux; also recorded: did not induce any monoamine efflux

Compound: CCC(C(=O)c1ccc2c(c1)OCO2)N1CCCC1 (stereo not drawn) [MDPBP, 3,4-methylenedioxy-α-pyrrolidinobutiophenone]
- Ki (hNET [1]; ref Rickli et al. (2015)): 1.1 ± 0.1 µM
- Ki (dopaminergic D2 receptor; ref Rickli et al. (2015)): > 20 µM
- Ki (adrenergic α1A receptor; ref Rickli et al. (2015)): > 4.9 µM
- α2A Receptor Binding Ki ± SD (adrenergic α2A receptor; ref Rickli et al. (2015)): bound the receptor in the low micromolar range
- Ki (adrenergic α2A receptor; ref Rickli et al. (2015)): 9.4 ± 1.6 µM
